Patent US20100317850A1 (priority 2008, published 2010)

tested on: Aβ42 production; assay: Quantification of Aβ peptide in culture of neurons from rat fetus brain (Aβ ELISA); assay type: cell-based; conditions: Neuron, 72 h; rat primary neuronal culture (cerebral cortex, embryonic day 18 Wistar rats); medium collected three days after addition of the compound; Aβx-42 ELISA; read-out: Aβ42 production reducing effect IC50
How it was run: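 Primary cortical neurons from embryonic day 18 Wistar rats were cultured 4 days, then exposed to compound in Neurobasal/B27 without 2-ME, final DMSO ≤1%. After three days, medium was collected and Aβx-42 measured undiluted by sandwich ELISA.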

Row | Molecule | IC50
1 | NC1=N[C@@]2(c3cc(NC(=O)c4ncc(Br)cn4)ccc3F)CCOC[C@H]2CS1 [Example 199] | 12 nM
2 | NC1=N[C@@]2(c3cc(NC(=O)c4ncc(F)cc4F)ccc3F)CCOC[C@H]2CS1 [Example 200] | 44 nM
3 | CO[C@H]1CC[C@]2(c3cc(NC(=O)c4cnc(C(F)F)cn4)ccc3F)N=C(N)SC[C@@H]2C1 [Example 205] | 25 nM
4 | NC1=N[C@@]2(c3cc(NC(=O)c4nc5ccccc5s4)ccc3F)CCCC[C@H]2CS1 [Example 223] | 316 nM
5 | NC1=N[C@@]2(c3cc(NC(=O)c4cnccn4)ccc3F)CCCC[C@H]2CS1 [Example 224] | 271 nM
6 | Cc1ccc(C(=O)Nc2ccc(F)c([C@]34CCCC[C@H]3CSC(N)=N4)c2)nc1 [Example 225] | 198 nM
7 | NC1=N[C@@]2(c3cccc(-c4cncnc4)c3)CN(c3cnccn3)C[C@H]2CS1 [Example 230] | 202 nM
8 | NC1=N[C@@]2(c3cc(NC(=O)c4ccncn4)ccc3F)CCC[C@H]2CS1 [Example 233] | 86 nM
9 | Cc1cccnc1C(=O)Nc1ccc(F)c([C@]23CCC[C@H]2CSC(N)=N3)c1 [Example 236] | 59 nM
10 | CC(=O)c1ccc(C(=O)Nc2ccc(F)c([C@]34CCC[C@H]3CSC(N)=N4)c2)nc1 [Example 237] | 80 nM
11 | COc1cccnc1C(=O)Nc1ccc(F)c([C@]23CCC[C@H]2CSC(N)=N3)c1 [Example 238] | 350 nM
12 | Cn1cc(-c2ccc(C(=O)Nc3ccc(F)c([C@]45CCC[C@H]4CSC(N)=N5)c3)nc2)cn1 [Example 239] | 238 nM
13 | NC1=N[C@@]2(c3cc(NC(=O)c4ncccc4F)ccc3F)CCCCC[C@H]2CS1 [Example 251] | 120 nM
14 | NC1=N[C@@]2(c3cc(NC(=O)c4ncccc4C(F)(F)F)ccc3F)CCCCC[C@H]2CS1 [Example 252] | 187 nM
15 | NC1=N[C@@]2(c3cc(NC(=O)c4ncccc4Br)ccc3F)CCCCC[C@H]2CS1 [Example 253] | 171 nM
16 | NC1=N[C@@]2(c3cc(NC(=O)c4ccc(Br)cn4)ccc3F)CCCC[C@H]2CS1 [Example 254] | 43 nM
17 | NC1=N[C@@]2(c3cc(NC(=O)c4ccccn4)ccc3F)CCCC[C@H]2CS1 [Example 255] | 158 nM
18 | NC1=N[C@@]2(c3cc(NC(=O)c4ncccc4Cl)ccc3F)CCCC[C@H]2CS1 [Example 258] | 376 nM
19 | NC1=N[C@@]2(c3cc(NC(=O)c4ncccc4F)ccc3F)CCCC[C@H]2CS1 [Example 259] | 372 nM
20 | NC1=N[C@@]2(c3cc(NC(=O)c4ncccc4Br)ccc3F)CCCC[C@H]2CS1 [Example 260] | 170 nM
21 | NC1=N[C@@]2(c3cc(NC(=O)c4ncccc4C(F)(F)F)ccc3F)CCCC[C@H]2CS1 [Example 261] | 277 nM

same assay, conditions: rat primary neuronal culture (cerebral cortex, embryonic day 18 Wistar rats); medium collected three days after addition of the compound; Aβx-42 ELISA; read-out: Aβ42 production reducing effect IC50

Row | Molecule | IC50
22 | N-[3-((4aR*,9aS*)-2- amino-4a,5,6,7,8,9-hexahydro-4H- cyclohepta[d][1,3]thiaziin-9a-yl)-4- fluorophenyl]-6-chloropyridine-2- carboxamide [Example 248] | 16 nM
